# According to patent US20110306775A1, “SYNTHESIS AND BIOLOGICAL EVALUATION OF 2',5'-DIMETHOXYCHALCONE DERIVATIVES AS MICROTUBULE-TARGETED ANTICANCER AGENTS” (KAOHSIUNG MEDICAL UNIVERSITY, priority 2010, published 2011):
# “Also recorded” adds a separate entry of the source.
# Assays:
# [1] = system: NTUB1 cells; assay: MTT cytotoxicity assay, NTUB1 cells; assay type: cell-based, human; details: for IC50: mean ± SD, n = 3-5
# Description: (§1) The cell lines of the present invention were an human urothelial carcinoma cell line (NTUB1), a human prostate cancer cell line (PC3), a human lung adenocarcinoma epithelial cell line (A549) and a SV-40 immortalized human uroepithelial cell line (SV-HUC1). However, the cell lines applied in the present invention includes but not limit in NTUB1, PC3, A549 and SV-HUC1 cells. Other cell lines having the same characteristics or not exactly the same characteristics are able to be used in the present invention. NTUB1, PC3 and A549 cells were maintained in RPMI 1640 and SV-HUC1 cells were maintained in F12 medium supplemented with 10% fetal bovine serum (FBS), 100 unit/mL penicillin-G, 100 μg/mL streptomycin and 2 mM glutamine. The cells were cultured at 37° C. in a humidified atmosphere containing 5% carbon dioxide.
# (§2) The cytotoxic effect of compounds 1 to 18 of the present invention and cisplatin (positive control) on the cell lines was evaluated using 3-[4,5-dimethylthiazol-2-yl]-2,5-diphenyltetrazolium bromide (MTT) assay. Briefly, the cells were plated at a density of 1800 cells/well in 96-well plates and incubated in the presence of graded concentrations of compounds 1 to 18 and cisplatin at 37° C. for 72 hours. At the end of the culture period, 50 μL of MTT ([…] in PBS) was added to each well and allowed to react for 3 hours. Following centrifugation of plates at 1000 g for 10 minutes, media were removed and 150 μL dimethyl sulfoxide (DMSO) were added to each well. The proportions of surviving cells were determined by absorbance spectrometry at 540 nm. The cell viability was expressed as a percentage to the viable cells of control culture condition. The IC50 value of each group were calculated by the median-effect analysis and presented as mean±standard deviation (SD).
# [2] = system: PC3 cells; assay: MTT cytotoxicity assay, PC3 cells; assay type: cell-based, human; details: for IC50: mean ± SD, n = 3-5
# Description: as §1, §2
# [3] = system: NTUB1 cells; assay: Cell cycle analysis (propidium iodide, flow cytometer), NTUB1 cells; assay type: cell-based, human; details: 24 hours, FIG. 2; for apoptotic cell death / cell cycle phase arrest: NTUB1, 1 μM; for cell cycle phase arrest: vs control
# Method: (§3) DNA content was determined following propidium iodide (PI) staining of cells. Briefly, 6×10^5 cells were plated and treated with 20 μM cisplatin and various concentrations of compounds 11 and 15 for 24 hours, respectively. These cells were harvested by trypsinization, washed with 1×PBS, and fixed in ice-cold MeOH at −20° C. After overnight incubation, the cells were washed with PBS and incubated with 50 μg/mL propidium iodide and 50 μg/mL RNase A in PBS at room temperature for 30 minutes. The fractions of cells in each phase of cell cycle were analyzed using flow cytometer.
# [4] = system: PC3 cells; assay: Cell cycle analysis (propidium iodide, flow cytometer), PC3 cells; assay type: cell-based, human; details: FIG. 3; for apoptotic cells death: PC3, 0.3 μM; for apoptotic cells: PC3, 1 μM
# Method: as §3
# [5] = system: A549 cells; assay: MTT cytotoxicity assay, A549 cells; assay type: cell-based, human; details: FIG. 1, compared with NTUB1 and PC3
# Description: as §1
# (§4) The cytotoxic effect of compounds 1 to 18 of the present invention and cisplatin (positive control) on the cell lines was evaluated using 3-[4,5-dimethylthiazol-2-yl]-2,5-diphenyltetrazolium bromide (MTT) assay. […] The proportions of surviving cells were determined by absorbance spectrometry at 540 nm. The cell viability was expressed as a percentage to the viable cells of control culture condition. The IC50 value of each group were calculated by the median-effect analysis and presented as mean±standard deviation (SD).
# [6] = system: SV-HUC1 cells; assay: MTT cytotoxicity assay, SV-HUC1 cells; assay type: cell-based, human; details: FIG. 1, compared with NTUB1 and PC3
# Description: as §1, §4
# [7] = system: NTUB1 cells; assay: Immuno-fluorescence staining of α-tubulin in NTUB1 cells; assay type: cell-based, human
# Method: In brief, NTUB 1 cells were seeded onto serum-coated coverslides. The cells were fixed with 2% formaldehyde/PBS for 20 minutes followed by cold methanol permeabilization for 3 minutes. The cells were washed with 1×PBS five minutes twice. The cells were then incubated with α-tubulin primary antibody overnight. The cells were washed with 1×PBS five minutes thrice. Goat anti-rabbit-rhodamine secondary antibody and 1 μg/mL 4′-6-diamidino-2-phenylindole (DAPI) were incubated for 1 hour at room temperature. The slides were washed with 1×PBS, mounted with mounting solution (80% glycerol/PBS) and photographed by microscopy.
# [8] = system: α-tubulin; assay: Western blot analysis for α-tubulin (soluble vs assembled) in NTUB1 cells; assay type: cell-based, human; details: 6 hours, FIG. 4
# Method: NTUB1 cells were seeded at a density of 1×10^6/[…] dishes and treated with indicated concentrations of test agents for 6 hours. The cells were then washed with cold PBS and lysed by adding lysis buffer (20 mM Tris-HCl (pH 6.8), 1 mM MgCl2, 2 mM EGTA (ethylene glycol tetraacetic acid), […] aprotinin, […], 1 mM phenylmethylsulfonyl fluoride, 1 mM orthovanadate, and 0.5% Nonidet P-40). The cell lysates were centrifuged at 15,000 g for 10 min at 4° C. Soluble and assembled tubulin could be separated in supernatant and pellet fraction, respectively. The supernatants and pellets were […] by the sodium dodecyl sulfate (SDS)-polyacrylamide gel electrophoresis assay. The relative amounts of tubulins transferred on the nitrocellulose membrane were detected by anti-tubulin monoclonal antibody and horseradish peroxidase (HRP)-conjugated secondary antibody. β-Actin was used for control. Detection of immunoreactive signal was accomplished with Western blot chemiluminescent reagent.
# [9] = system: NTUB1 cells; assay: Cell death and morphology of treated NTUB1 cells; assay type: cell-based, human; details: NTUB1, different concentrations, 24 hours, data not shown
compound,measurement,setting,value
"4-(2-methylethyl)carbamoyl-2′,5′-dimethoxychalcone [Compound 11]",cytotoxicity against NTUB1 cells (in words),[1],significantly enhanced the cytotoxicity
same,IC50,[1]; 72 hours,1.97 ± 0.39 µM
same,cytotoxicity against PC3 cells (in words),[2],significantly enhanced the cytotoxicity
same,IC50,[2]; 72 hours,1.58 ± 0.08 µM
same,apoptotic cell death,[3],increase in apoptotic cell death
same,cell cycle phase arrest,[3],induced G1 phase arrest
same,apoptotic cells death,[4],increase of the apoptotic cells death
same,apoptotic cells,[4],increase of apoptotic cells
"CCOC(=O)c1ccc(/C=C/C(=O)c2cc(OC)ccc2OC)cc1 (hydrate or solvate) [Compound 3, 4-ethoxycarbonyl-2′,5′-dimethoxychalcone]",melting point,,118 to 119 °C
"N.N.[Cl][Pt][Cl] [Cisplatin, cisplatin, reference compound]",IC50,[1]; 72 hours,3.27 ± 0.1 µM
same,IC50,[2]; 72 hours,4.56 ± 0.76 µM
same,cell cycle distribution,"[3]; NTUB1, 20 μM",accumulation of cells in G1 and S phases
same,sub-G1 population,"[3]; NTUB1, 20 μM",increase of the population of sub-G1 phase
same,apoptotic cell death,"[4]; PC3, 20 μM, 24 hours",increase of apoptotic cell death
same,cell cycle distribution,"[4]; PC3, 20 μM, 24 hours",accumulation of cells in S phase
"COc1ccc(OC)c(C(=O)/C=C/c2ccc(C(=O)O)cc2)c1 [Compound 1, 4-carboxyl-2′,5′-dimethoxychalcone]",cytotoxicity against NTUB1 cells (in words),[1],significantly cytotoxic activities
same,IC50,"[1]; Homo sapiens, NTUB1, 72 hours",5.7 ± 0.68 µM
same,IC50,"[2]; Homo sapiens, PC-3, 72 hours",7.24 ± 0.58 µM
same,melting point,,214 to 215 °C
"COC(=O)c1ccc(/C=C/C(=O)c2cc(OC)ccc2OC)cc1 [Compound 2, 4-methoxycarbonyl-2′,5′-dimethoxychalcone]",IC50,"[1]; Homo sapiens, NTUB1, 72 hours",3.51 ± 0.45 µM
same,IC50,"[2]; Homo sapiens, PC-3, 72 hours",4.85 ± 0.11 µM
same,melting point,,118 to 119 °C
"CCOC(=O)c1ccc(/C=C/C(=O)c2cc(OC)ccc2OC)cc1 [Compound 3, 4-ethoxycarbonyl-2′,5′-dimethoxychalcone]",IC50,"[1]; Homo sapiens, NTUB1, 72 hours",4.49 ± 0.98 µM
same,IC50,"[2]; Homo sapiens, PC-3, 72 hours",5.7 ± 0.43 µM
"CCCOC(=O)c1ccc(C=CC(=O)c2cc(OC)ccc2OC)cc1 [Compound 4, propoxycarbonyl-2′,5′-dimethoxychalcone]",IC50,[1]; 72 hours,6.01 ± 0.3 µM
same,IC50,[2]; 72 hours,26.9 µM
"COc1ccc(OC)c(C(=O)/C=C/c2ccc(C(=O)OC(C)C)cc2)c1 [Compound 5, 4-isopropoxycarbonyl-2′,5′-dimethoxychalcone]",IC50,"[1]; Homo sapiens, NTUB1, 72 hours",4.42 ± 0.5 µM
same,IC50,"[2]; Homo sapiens, PC-3, 72 hours",6.74 ± 1.34 µM
"COc1ccc(OC)c(C(=O)/C=C/c2ccc(C(=O)OCc3ccccc3)cc2)c1 [Compound 6, 4-benzyloxycarbonyl-2′,5′-dimethoxychalcone]",IC50,"[1]; Homo sapiens, NTUB1, 72 hours",13.3 ± 2.86 µM
same,IC50,"[2]; Homo sapiens, PC-3, 72 hours",17.9 ± 0.5 µM
"COc1ccc(OC)c(C(=O)/C=C/c2ccc(C(=O)OCC=C(C)C)cc2)c1 [Compound 7, 4-(3-methyl-but-2-enyloxycarbonyl)-2′,5′-dimethoxychalcone]",IC50,"[1]; Homo sapiens, NTUB1, 72 hours",13.4 ± 0.78 µM
same,IC50,"[2]; Homo sapiens, PC-3, 72 hours",> 50 µM
"CNC(=O)c1ccc(/C=C/C(=O)c2cc(OC)ccc2OC)cc1 [Compound 8, 4-methylcarbamoyl-2′,5′-dimethoxychalcone]",IC50,"[1]; Homo sapiens, NTUB1, 72 hours",2.2 ± 0.37 µM
same,IC50,"[2]; Homo sapiens, PC-3, 72 hours",2.13 ± 0.21 µM
same,melting point,,217 to 218 °C
"CCNC(=O)c1ccc(/C=C/C(=O)c2cc(OC)ccc2OC)cc1 [Compound 9, 4-ethylcarbamoyl-2′,5′-dimethoxychalcone]",IC50,"[1]; Homo sapiens, NTUB1, 72 hours",3.76 ± 0.4 µM
same,IC50,"[2]; Homo sapiens, PC-3, 72 hours",4.18 ± 0.23 µM
same,melting point,,213 to 214 °C
"CCCNC(=O)c1ccc(/C=C/C(=O)c2cc(OC)ccc2OC)cc1 [Compound 10, 4-propylcarbamoyl-2′,5′-dimethoxychalcone]",cytotoxicity against NTUB1 cells (in words),[1],significantly enhanced the cytotoxicity
same,IC50,"[1]; Homo sapiens, NTUB1, 72 hours",2.26 ± 0.31 µM
same,cytotoxicity against PC3 cells (in words),[2],significantly enhanced the cytotoxicity
same,IC50,"[2]; Homo sapiens, PC-3, 72 hours",1.5 ± 0.22 µM
"COc1ccc(OC)c(C(=O)/C=C/c2ccc(C(=O)N(C)C)cc2)c1 [Compound 12, 4-dimethylcarbamoyl-2′,5′-dimethoxychalcone]",IC50,"[1]; Homo sapiens, NTUB1, 72 hours",3.89 ± 0.21 µM
same,IC50,"[2]; Homo sapiens, PC-3, 72 hours",4.58 ± 1.05 µM
"COc1ccc(OC)c(C(=O)/C=C/c2ccc(C(=O)NC3CCCCC3)cc2)c1 [Compound 13, 4-cyclohexylcarbamoyl-2′,5′-dimethoxychalcone]",IC50,"[1]; Homo sapiens, NTUB1, 72 hours",2.25 ± 0.57 µM
same,IC50,"[2]; Homo sapiens, PC-3, 72 hours",6.3 ± 0.59 µM
same,melting point,,280 to 281 °C
"CCN(CC)C(=O)c1ccc(/C=C/C(=O)c2cc(OC)ccc2OC)cc1 [Compound 14, 4-diethylcarbamoyl-2′,5′-dimethoxychalcone]",IC50,"[1]; Homo sapiens, NTUB1, 72 hours",2.69 ± 0.47 µM
same,IC50,"[2]; Homo sapiens, PC-3, 72 hours",3.79 ± 0.56 µM
"COc1ccc(OC)c(C(=O)C=Cc2ccc(C(=O)N3CCCC3)cc2)c1 [Compound 15, 4-tetrahydropyrrolylcarbamoyl-2′,5′-dimethoxychalcone]",cytotoxicity against NTUB1 cells (in words),[1],significantly enhanced the cytotoxicity; also recorded: strongest cytotoxicity
same,IC50,[1]; 72 hours,1.26 ± 0.25 µM
same,cytotoxicity against PC3 cells (in words),[2],significantly enhanced the cytotoxicity; also recorded: strongest cytotoxicity
same,IC50,[2]; 72 hours,0.53 µM
same,cytotoxicity against A549 cells (in words),[5],more potent cytotoxic effect against NTUB1 and PC3 cells than that of A549 cells; also recorded: less cytotoxicity
same,cytotoxicity against human normal uroepithelial SV-HUC1 cells (in words),[6],less cytotoxicity against human normal uroepithelial SV-HUC1 cells than those of NTUB1 and PC3 cells lines
same,apoptotic cell death,[3],increase in apoptotic cell death
same,cell cycle phase arrest,[3],induced G1 phase arrest
same,apoptotic cells death,[4],increase of the apoptotic cells death
same,apoptotic cells,[4],increase of apoptotic cells
same,cells arrested at mitosis,"[7]; NTUB1, 1 μM, data not shown",induced more NTUB1 cells arrested at mitosis
same,microtubule bundle formation,"[7]; NTUB1, immuno-fluorescent microscopy, mimicked the effect of paclitaxel",induced the microtubule bundle formation
same,α-tubulin level in the pellet (assembled),"[8]; NTUB1, various concentrations",increased in a dose-dependent manner
same,α-tubulin level in the supernatant (soluble),"[8]; NTUB1, various concentrations",decreased level in a dose-dependent manner
same,cell death and cell shape after treatment,[9],more cell death and rounding up
"COc1ccc(OC)c(C(=O)C=Cc2ccc(C(=O)N(C)CCO)cc2)c1 [Compound 16, 4-(2-hydroxyethyl)methyl-carbamoyl-2′,5′-dimethoxychalcone]",IC50,[1]; 72 hours,4.42 ± 0.15 µM
same,IC50,[2]; 72 hours,5.75 ± 1.27 µM
"COc1ccc(OC)c(C(C=Cc2ccc(C(=O)NC3CC3)cc2)=NC2CC2)c1 [Compound 17, N-cyclopropyl-4-[3-cyclopropylimino-3-(2′,5′-dimethoxy-phenyl)-propenyl]-benzamide]",IC50,[1]; 72 hours,3.57 ± 0.47 µM
same,IC50,[2]; 72 hours,4.26 ± 0.81 µM
COc1ccc(OC)c(C(=O)/C=C/c2ccc(C(=O)O)s2)c1 [Compound 18],cytotoxicity against NTUB1 cells (in words),[1],no significant cytotoxicity
same,IC50,"[1]; Homo sapiens, NTUB1, 72 hours",> 50 µM
same,melting point,,237 to 238 °C
"CC(=O)O[C@H]1C(=O)[C@@]2(C)[C@H]([C@H](OC(=O)c3ccccc3)[C@]3(O)C[C@H](OC(=O)[C@H](O)[C@@H](NC(=O)c4ccccc4)c4ccccc4)C(C)=C1C3(C)C)[C@]1(OC(C)=O)CO[C@@H]1C[C@@H]2O [Paclitaxel, paclitaxel, reference compound]",tubulin assembly,"[8]; NTUB1, 500 nM",stabilized the tubulin assembly
